Where a name gives a salt, the structure may show the parent alone.
Target: T1, nSMase2 (Homo sapiens, UniProt Q9NY59)
T1 sequence (Q9NY59 1-655): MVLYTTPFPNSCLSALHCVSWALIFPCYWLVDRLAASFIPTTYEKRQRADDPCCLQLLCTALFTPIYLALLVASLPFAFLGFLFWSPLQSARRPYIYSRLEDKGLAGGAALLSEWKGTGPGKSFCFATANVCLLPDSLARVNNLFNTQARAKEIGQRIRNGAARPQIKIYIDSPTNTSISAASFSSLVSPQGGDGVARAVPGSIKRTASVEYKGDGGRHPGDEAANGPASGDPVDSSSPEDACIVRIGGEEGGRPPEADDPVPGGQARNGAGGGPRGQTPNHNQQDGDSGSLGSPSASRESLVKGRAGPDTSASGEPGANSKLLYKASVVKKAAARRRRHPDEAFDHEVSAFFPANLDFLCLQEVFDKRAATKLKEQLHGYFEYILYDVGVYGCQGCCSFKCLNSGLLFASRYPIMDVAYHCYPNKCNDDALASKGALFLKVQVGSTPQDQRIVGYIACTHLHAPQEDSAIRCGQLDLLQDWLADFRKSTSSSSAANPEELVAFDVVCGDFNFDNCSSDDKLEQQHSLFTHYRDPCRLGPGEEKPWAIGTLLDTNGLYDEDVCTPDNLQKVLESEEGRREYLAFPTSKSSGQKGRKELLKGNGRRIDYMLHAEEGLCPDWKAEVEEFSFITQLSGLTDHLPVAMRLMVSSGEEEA
Test: Inhibition of nSMase2 (IC50)
Format: biochemical

[1] = Table 1, Representative Inhibitors of nSMase2 of Formula (I)

| Compound | IC50 [1] [µM] | IC50 (Table 2, Inhibition of nSMase) [µM] |
| --- | --- | --- |
| Oc1c(OC2CCCC2)cc(-c2nc(-c3ccccc3)c(-c3cccs3)[nH]2)cc1OC1CCCC1 [Compound 30, 2,6-bis(cyclopentyloxy)-4-(5-phenyl-4-(thiophen-2-yl)-1H-imidazol-2-yl)phenol] | 0.1 | 0.1 |
| COc1cc(-c2ncc(-c3ccccc3)[nH]2)cc(OC)c1O [Compound 23, 2,6-dimethoxy-4-(5-phenyl-1H-imidazol-2-yl)phenol hydrochloride] |  | 0.07 |
| COc1cc(-c2nc(-c3cccs3)c(C)[nH]2)cc(OC)c1O [Compound 41, 2,6-dimethoxy-4-(4-methyl-5-(thiophen-2-yl)-1H-imidazol-2-yl)phenol hydrochloride] | 0.01 | 0.01 |
| CCc1nc(-c2cc(OC)c(O)c(OC)c2)[nH]c1CC [Compound 33, 4-(4,5-diethyl-1H-imidazol-2-yl)-2,6-dimethoxyphenol] | 0.08 | 0.08 |
| COc1cc(-c2nc3cccnc3[nH]2)cc(OC)c1O [Compound 43, 4-(3H-imidazo[4,5-b]pyridin-2-yl)-2,6-dimethoxyphenol] | 4 | 4 |
| COc1cc(-c2nc(C)c(C)[nH]2)cc(OC)c1O [Compound 19, 4-(4,5-dimethyl-1H-imidazol-2-yl)-2,6-dimethoxyphenol hydrochloride] | 0.5 | 0.5 |
| COc1cc(-c2ncc(C34CC5CC(CC(C5)C3)C4)[nH]2)cc(OC)c1O [Compound 39, 2,6-dimethoxy-4-(5-adamantyl-1H-imidazol-2-yl)phenol] | 0.2 | 0.2 |
| COc1cc(-c2nc(-c3ccco3)c(-c3ccco3)[nH]2)cc(OC)c1O [Compound 34, 4-(4,5-di(furan-2-yl)-1H-imidazol-2-yl)-2,6-dimethoxyphenol hydrochloride] | 0.03 | 0.03 |
| COc1cc(-c2nc(-c3cccs3)c(-c3cccs3)[nH]2)cc(OC)c1O [Compound 27, 4-(4,5-di(thiophen-2-yl)-1H-imidazol-2-yl)-2,6-dimethoxyphenol] | 0.02 |  |
| CCCOc1cc(-c2nc(-c3cccs3)c(-c3ccccc3)[nH]2)cc(OCCC)c1O [Compound 31, 4-(5-phenyl-4-(thiophen-2-yl)-1H-imidazol-2-yl)-2,6-dipropoxyphenol] | 0.04 | 0.04 |
| COc1cc(-c2ncc(-c3ccc(Br)cc3)[nH]2)cc(OC)c1O [Compound 26, 4-(5-(4-bromophenyl)-1H-imidazol-2-yl)-2,6-dimethoxyphenol] | 0.2 | 0.2 |
| COc1cc(-c2ncc[nH]2)cc(OC)c1O [Compound 18, 4-(1H-imidazol-2-yl)-2,6-dimethoxyphenol] | 0.4 | 0.4 |
| COc1cc(-c2nc(-c3ccccc3)c(-c3ccccc3)[nH]2)cc(OC)c1O [Compound 25, 4-(4,5-diphenyl-1H-imidazol-2-yl)-2,6-dimethoxyphenol] |  | 0.02 |
| COc1ccc(-c2nc(-c3cc(OC)c(O)c(OC)c3)[nH]c2-c2ccc(OC)cc2)cc1 [Compound 28, 4-(4,5-bis(4-methoxyphenyl)-1H-imidazol-2-yl)-2,6-dimethoxyphenol] | 0.02 |  |
| Oc1c(OCC(F)(F)F)cc(-c2nc(-c3ccccc3)c(-c3cccs3)[nH]2)cc1OCC(F)(F)F [Compound 36, 4-(4-phenyl-5-(thiophen-2-yl)-1H-imidazol-2-yl)-2,6-bis(2,2,2-trifluoroethoxy)phenol] | 0.06 | 0.06 |
| CC(C)(C)Oc1cc(-c2nc(-c3ccccc3)c(-c3cccs3)[nH]2)cc(OC(C)(C)C)c1O [Compound 45, 2,6-di-tert-butoxy-4-(4-phenyl-5-(thiophen-2-yl)-1H-imidazol-2-yl)phenol] | 0.4 | 0.4 |

| Compound | IC50 [1] [µM] | IC50 (Table 2, Inhibition of nSMase) [µM] |
| --- | --- | --- |
| COc1cc(-c2nc(C)c(-c3ccccc3)[nH]2)cc(OC)c1O [Compound 35, 2,6-dimethoxy-4-(4-methyl-5-phenyl-1H-imidazol-2-yl)phenol] | 0.02 |  |
| COc1cc(-c2nc(-c3ccccc3)c(C(C)C)[nH]2)cc(OC)c1O [Compound 48, 4-(5-isopropyl-4-phenyl-1H-imidazol-2-yl)-2,6-dimethoxyphenol] | 0.06 | 0.06 |
| COc1cc(C2=NC3CCCCC3N2)cc(OC)c1O (centres unmarked) [Compound 3546] | 70 |  |
| COc1cc(-c2nc3c(C)ccc(C)c3[nH]2)cc(OC)c1O [Compound 44, 4-(4,7-dimethyl-1H-benzo[d]imidazol-2-yl)-2,6-dimethoxyphenol] | 0.8 | 0.8 |
| COc1cc(-c2ncc(C)[nH]2)cc(OC)c1O [Compound 24, 2,6-dimethoxy-4-(5-methyl-1H-imidazol-2-yl)phenol] | 0.2 | 0.2 |
| COc1cc(-c2nc(C(C)C)c(C(C)C)[nH]2)cc(OC)c1O [Compound 47, 4-(4,5-diisopropyl-1H-imidazol-2-yl)-2,6-dimethoxyphenol] | 0.06 | 0.06 |
| COc1cc(-c2nc(-c3ccc(C)cc3)c(-c3ccc(C)cc3)[nH]2)cc(OC)c1O [Compound 38, 4-(4,5-di-p-tolyl-1H-imidazol-2-yl)-2,6-dimethoxyphenol] | 0.06 | 0.06 |
| COc1cc(-c2nc(-c3ccccc3)c(-c3cccs3)n2C)cc(OC)c1O [Compound 3455] | 60 |  |
| CCCCc1[nH]c(-c2cc(OC)c(O)c(OC)c2)nc1C [Compound 32, 4-(5-butyl-4-methyl-1H-imidazol-2-yl)-2,6-dimethoxyphenol] | 0.06 |  |
| CC(C)Oc1cc(-c2nc(-c3ccccc3)c(-c3cccs3)[nH]2)cc(OC(C)C)c1O [Compound 22, 2,6-diisopropoxy-4-(4-phenyl-5-(thiophen-2-yl)-1H-imidazol-2-yl)phenol] | 0.02 | 0.03 |
| CCc1nc(-c2cc(OCC(F)(F)F)c(O)c(OCC(F)(F)F)c2)[nH]c1CC [Compound 37, 4-(4,5-diethyl-1H-imidazol-2-yl)-2,6-bis(2,2,2-trifluoroethoxy)phenol] | 0.7 | 0.7 |
| COc1cc(-c2nc3ccccc3[nH]2)cc(OC)c1O [Compound 42, 4-(1H-benzo[d]imidazol-2-yl)-2,6-dimethoxyphenol] | 0.6 | 0.6 |
| COc1cc(-c2nc3c([nH]2)CCCC3)cc(OC)c1O [Compound 20, 2,6-dimethoxy-4-(4,5,6,7-tetrahydro-1H-benzo[d]imidazol-2-yl)phenol] | 0.4 | 0.4 |
| CCc1nc(-c2cc(OC)c(O)c(OC)c2)[nH]c1-c1ccccn1 [Compound 40, 4-(4-ethyl-5-(pyridin-2-yl)-1H-imidazol-2-yl)-2,6-dimethoxyphenol hydrochloride] | 0.5 | 0.5 |
| CCCCc1nc(-c2cc(OC)c(O)c(OC)c2)[nH]c1CCCC [Compound 46, 4-(4,5-dibutyl-1H-imidazol-2-yl)-2,6-dimethoxyphenol] | 0.2 | 0.2 |
| COc1cc(-c2nc(-c3ccc(C)cc3)c[nH]2)cc(OC)c1O [Compound 29, 2,6-dimethoxy-4-(4-p-tolyl-1H-imidazol-2-yl)phenol] | 0.1 | 0.1 |

Source: US12195450B2, “Small molecule neutral sphingomyelinase 2 (nSMase2) inhibitors” (The Johns Hopkins University, priority 2019, dated 2025)
